From patent US11946064B2, “Compositions and therapeutic methods of microRNA gene delivery” (The Brigham and Women's Hospital, Inc., priority 2018, dated 2024)

Test system: glioblastoma initiating cells (GICs)
Test: survival of mice implanted intracranially with GICs and treated with TMZ
Format: in vivo, athymic nude mice
Settings: control cells; intraperitoneal TMZ 20 mg/Kg/day for 5 days
Method: FIGS. 6A-6F illustrates the effect of clustered microRNAs on GBM cells treated with TMZ or irradiation. […] Dotted lines represent animals treated with TMZ. Different line colors represent the different overexpressed clusters.
Furthermore, in an in vivo model, mice were intracranially implanted with glioblastoma initiating cells (GICs) expressing either control vector, Cluster 3 or Cluster 5 vector and treated with intraperitoneal TMZ injections (20 mg/Kg/day for 5 days).

Cn1nnc2c(C(N)=O)ncn2c1=O [TMZ, temozolomide]
survival benefit: ~40%
